Measured values: patent US20250312321A1, “TRANSIENT SIROLIMUS WITH FASL MICROGELS” (iTOLERANCE, Inc., priority 2022, published 2025)

Parameters: species or system non-human primates (Cyno)
Conditions: cynomolgus monkey, in vivo
Procedure: Biotinylated PEG microgels (150 μm diameter) were synthesized by microfluidic cross-linking and functionalized with SA-FasL as previously described (Headon, D M, et al., Nat. Mater. 17:732-739 (2018)). Four diabetic non-human primates (NHP) (FIG. 1B; Tables 1 and 2) underwent transplantation of allogeneic islets (14,800 to 18,700 islet equivalents (IEQ)/kg) mixed with SA-FasL-presenting microgels (150,000 to 200,000 microgels delivering 0.2 mg of SA-FasL) on the omental surface. […]
At selected time points, intravenous glucose tolerance tests (IVGTT) were performed to assess glucose disposal kinetics and insulin and C-peptide levels. […] Consistent with these metrics of graft function, background levels of insulin and C-peptide were measured in the serum of SA-FasL microgel NHPs after STZ administration but before islet transplant and equivalently low levels were evident post-graft removal (insulin: pre-STZ vs. post-STZ, P<0.0001; post-STZ vs. post-graft removal (PGR), P=0.9998; C-peptide: pre-STZ vs. post-STZ, P=0.0060; post-STZ vs. post-graft removal, P=0.4032) (FIG. 2D). […] SA-FasL protein was detected in the serum of all NHPs as early as 1-day after transplantation ranging from 4-56 ng/mL and decreasing to background levels by days 7-14.

For CO[C@H]1C[C@@H]2CC[C@@H](C)[C@@](O)(O2)C(=O)C(=O)N2CCCC[C@H]2C(=O)O[C@H]([C@H](C)C[C@@H]2CC[C@@H](O)[C@H](OC)C2)CC(=O)[C@H](C)/C=C(\C)[C@@H](O)[C@@H](OC)C(=O)[C@H](C)C[C@H](C)/C=C/C=C/C=C/1C [Sirolimus], the “Time after discontinuation at which sirolimus levels became undetectable” value was 2 weeks.
